Experimental data from the supplement of paper PMC11061612.

How the values were obtained:
Assay in all cases: combination Emax (second highest fraction inhibited in the dose matrix, 72 h); higher = more inhibition; extreme values may be limits of the assay
[1] = test system: SK-MES-1 (Squamous Cell Lung Carcinoma)
Procedure, shortened: (§1)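 Cell lines grown in DMEM/F12 or RPMI with 10% FBS were plated in 1536-well plates and held 24 hours at 37°C, 5% CO2 before 72 hours of exposure to two-drug dose matrices, with DMSO typically at 0.2%. CellTiter-Glo 2.0 luminescence gave viability, which was converted to inhibition. Vehicle wells were set to 0 and blank wells to 1. Combination Emax is the second-highest inhibition in the matrix, and Bliss excess is the observed combination effect minus the expected EA + EB − EA·EB, where EA and EB are the single-agent effects.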

[2] = test system: SK-MG-1 (Low Grade Glioma)
Procedure, shortened: as §1

[3] = test system: OS-RC-2 (Kidney Carcinoma)
Procedure, shortened: as §1

[4] = test system: COLO-320-HSR (Colorectal Carcinoma)
Procedure, shortened: as §1

[5] = test system: ONS-76 (Other Solid Carcinomas)
Procedure, shortened: as §1

[6] = test system: NCI-H64 (Small Cell Lung Carcinoma)
Procedure, shortened: as §1

NCI-H2591 (Mesothelioma) = test system: NCI-H2591 (Mesothelioma)
Procedure, shortened: as §1

NY (Osteosarcoma) = test system: NY (Osteosarcoma)
Procedure, shortened: as §1

[7] = test system: NCI-H1650 (Lung Adenocarcinoma)
Procedure, shortened: as §1

[8] = test system: VCaP (Prostate Carcinoma)
Procedure, shortened: as §1

[9] = test system: SISO (Cervical Carcinoma)
Procedure, shortened: as §1

[10] = test system: NCI-H1666 (Lung Adenocarcinoma)
Procedure, shortened: as §1

[11] = test system: A3-KAW (B-Cell Non-Hodgkin's Lymphoma)
Procedure, shortened: as §1

[12] = test system: ECC10 (Gastric Carcinoma)
Procedure, shortened: as §1

ARH-77 (Non-Cancerous) = test system: ARH-77 (Non-Cancerous)
Procedure, shortened: as §1

[13] = test system: HCC1954 (Breast Carcinoma)
Procedure, shortened: as §1

[14] = test system: TT (Thyroid Gland Carcinoma)
Procedure, shortened: as §1

[15] = test system: NCI-H2066 (Squamous Cell Lung Carcinoma)
Procedure, shortened: as §1

FU97 (Gastric Carcinoma) = test system: FU97 (Gastric Carcinoma)
Procedure, shortened: as §1

[16] = test system: NCI-H1693 (Lung Adenocarcinoma)
Procedure, shortened: as §1

Row | Structure (SMILES) | combination Emax [1] | combination Emax [2] | combination Emax [3] | combination Emax [4] | combination Emax [5] | combination Emax [6] | combination Emax (NCI-H2591 (Mesothelioma)) | combination Emax (NY (Osteosarcoma)) | combination Emax [7] | combination Emax [8] | combination Emax [9] | combination Emax [10] | combination Emax [11] | combination Emax [12] | combination Emax (ARH-77 (Non-Cancerous)) | combination Emax [13] | combination Emax [14] | combination Emax [15] | combination Emax (FU97 (Gastric Carcinoma)) | combination Emax [16]
1 | CC1(C)CCC(CN2CCN(c3ccc(C(=O)NS(=O)(=O)c4ccc(NCC5CCOCC5)c([N+](=O)[O-])c4)c(Oc4cnc5[nH]ccc5c4)c3)CC2)=C(c2ccc(Cl)cc2)C1 [Venetoclax] + COc1cc(Nc2ncc3c(n2)-c2ccc(Cl)cc2C(c2c(F)cccc2OC)=NC3)ccc1C(=O)O [Alisertib] (first compound max 1 µM, 7x7, partner max 10 µM) | 0.4 | 0.365 | 0.319 | 0.296 | 0.553 | 0.692 | 0.298 | 0.654 | 0.493 | 0.305 | 0.543 | 0.501 | 0.759 | 0.963 | 0.932 | 0.36 | 0.573 | 0.285 | 0.484 | 0.344
2 | CC1(C)CCC(CN2CCN(c3ccc(C(=O)NS(=O)(=O)c4ccc(NCC5CCOCC5)c([N+](=O)[O-])c4)c(Oc4cnc5[nH]ccc5c4)c3)CC2)=C(c2ccc(Cl)cc2)C1 [Venetoclax] + C[C@@H]1COCCN1C2=NC(=NC(=C2)C3(CC3)[S@](=N)(=O)C)C4=C5C=CNC5=NC=C4 [AZD6738] (first compound max 1 µM, 7x7, partner max 10 µM) | 0.75 | 0.535 | 0.399 | 0.561 | 0.865 | 0.882 | 0.329 | 0.708 | 0.402 | 0.428 | 0.532 | 0.424 | 1 | 0.98 | 0.961 | 0.55 | 0.702 | 0.384 | 0.339 | 0.372
3 | CC1(C)CCC(CN2CCN(c3ccc(C(=O)NS(=O)(=O)c4ccc(NCC5CCOCC5)c([N+](=O)[O-])c4)c(Oc4cnc5[nH]ccc5c4)c3)CC2)=C(c2ccc(Cl)cc2)C1 [Venetoclax] + C[C@@H](Nc1cc(F)cc(F)c1)c1cc(C(=O)N(C)C)cc2c(=O)cc(N3CCOCC3)oc12 [AZD8186] (first compound max 1 µM, 7x7, partner max 3 µM) | 0.257 | 0.387 | 0.375 | 0.135 | 0.746 | 0.335 | 0.118 | 0.616 | 0.255 | 0.188 | 0.11 | 0.339 | 0.302 | 0.969 | 0.724 | 0.0913 | 0.531 | 0.215 | 0.329 | 0.129
4 | CC1(C)CCC(CN2CCN(c3ccc(C(=O)NS(=O)(=O)c4ccc(NCC5CCOCC5)c([N+](=O)[O-])c4)c(Oc4cnc5[nH]ccc5c4)c3)CC2)=C(c2ccc(Cl)cc2)C1 [Venetoclax] + Cc1cc2ncnn2cc1Nc1ncc2c(n1)n(C1CCOCC1)c(=O)n2C [AZD7648] (first compound max 1 µM, 7x7, partner max 10 µM) | 0.155 | 0.28 | 0.274 | 0.174 | 0.764 | 0.255 | 0.315 | 0.578 | 0.108 | 0.293 | 0.164 | 0.232 | 0.417 | 0.955 | 0.559 | 0.336 | 0.601 | 0.273 | 0.494 | 0.26
5 | CC1(C)CCC(CN2CCN(c3ccc(C(=O)NS(=O)(=O)c4ccc(NCC5CCOCC5)c([N+](=O)[O-])c4)c(Oc4cnc5[nH]ccc5c4)c3)CC2)=C(c2ccc(Cl)cc2)C1 [Venetoclax] + Cn1cnc2c(F)c(Nc3ccc(Br)cc3Cl)c(C(=O)NOCCO)cc21 [Selumetinib] (first compound max 1 µM, 7x7, partner max 3 µM) | 0.345 | 0.185 | 0.169 | 0.083 | 0.536 | 0.239 | 0.171 | 0.485 | 0.0531 | 0.143 | 0.196 | 0.575 | 0.216 | 0.937 | 0.369 | 0.186 | 0.436 | 0.191 | 0.314 | 0.26
